Experimental data taken from patent EP2057188B1 (priority 2006, dated 2008).
Like-named read-outs stand apart in the source and are kept apart here. Ends that are not written are not given here.

Tests used:
[1] = assay type: in vivo, NIH/Swiss mice; settings: 80 nmol/Kg; AUC240
Experimental: Gavage (1.5g/kg) was given at t=0. Sample was taken at t=30 min.

[2] = IVGTT duration of action assay, single SC injection; assay type: in vivo, rat; settings: compared with 0601GIP3794 (794); @ -120 min
Experimental: In the typical IVGTT assays the test sample was administered by IV infusion. The IV infusion of sample was initiated at t = -30min and continued through t = 90. IV glucose was given at t = 0. To determine a duration of action using the IVGTT assay, the sample was injected SC as a single injection at one time point indicated (e.g., t = -240, -120, -60 or -30) prior to administration of glucose. IV glucose was given at t = 0.

[3] = cited from earlier work; for EC(50): inhibition of gastric emptying, subcutaneous; for inhibition of gastric emptying: at doses of 100µg
[4] = assay type: in vivo, rats; parameters: AUC Change in Insulin Pre IVGTT / AUC Change in Insulin Post IVGTT: unit not given beside the values; settings: for AUC Change in Insulin Post IVGTT / AUC Change in Insulin Pre IVGTT: rat, in vivo
[5] = 100 pmol/kg/min infusion dose in rats

Compound	Basal Glucose Lowering at 80 nmol/Kg [1]	Duration In The Rat IVGTT Assay [2]	inhibition of gastric emptying [3]	also measured
CC[C@H](C)[C@H](NC(=O)[C@H](CCCCN)NC(=O)[C@H](CC(=O)O)NC(=O)[C@H](CC(C)C)NC(=O)[C@H](C)NC(=O)[C@@H](NC(=O)[C@H](CO)NC(=O)[C@H](Cc1ccc(O)cc1)NC(=O)[C@H](CC(=O)O)NC(=O)[C@H](CO)NC(=O)[C@@H](NC(=O)[C@H](Cc1ccccc1)NC(=O)[C@@H](NC(=O)CNC(=O)[C@H](CCC(=O)O)NC(=O)[C@@H](C)NC(=O)[C@H](Cc1ccc(O)cc1)NC(=O)[C@@H](N)CC(C)C)[C@@H](C)O)[C@@H](C)CC)[C@@H](C)CC)C(=O)N[C@@H](C)C(=O)N[C@@H](CCC(N)=O)C(=O)N[C@@H](CCC(N)=O)C(=O)N[C@@H](CCC(=O)O)C(=O)N[C@@H](Cc1ccccc1)C(=O)N[C@H](C(=O)N[C@@H](CC(N)=O)C(=O)N[C@@H](Cc1c[nH]c2ccccc12)C(=O)N[C@@H](CC(C)C)C(=O)N[C@@H](CC(C)C)C(=O)N[C@@H](C)C(=O)N[C@@H](CCC(N)=O)C(=O)N[C@@H](CCCCN)C(=O)N1CCC[C@H]1C(=O)N[C@@H](CCCCN)C(=O)N[C@@H](CCCCN)C(=O)N[C@H](C(=O)N[C@@H](CCCNC(=N)N)C(=O)N[C@@H](Cc1ccc(O)cc1)C(=O)N[C@@H](CO)C(N)=O)[C@@H](C)CC)C(C)C [0601 GIP48 02]	-15%, AUC240	< 794 @ -120 min		
CC[C@H](C)[C@H](NC(=O)[C@H](CO)NC(=O)[C@H](Cc1ccc(O)cc1)NC(=O)[C@H](CC(=O)O)NC(=O)[C@H](CO)NC(=O)[C@@H](NC(=O)[C@H](Cc1ccccc1)NC(=O)[C@@H](NC(=O)CNC(=O)[C@H](CCC(=O)O)NC(=O)[C@@H](C)NC(=O)[C@@H](N)Cc1ccc(O)cc1)[C@@H](C)O)[C@@H](C)CC)C(=O)N[C@@H](C)C(=O)N[C@@H](CC(C)C)C(=O)N[C@@H](CC(=O)O)C(=O)N[C@@H](CCCCN)C(=O)N[C@H](C(=O)N[C@@H](Cc1c[nH]cn1)C(=O)N[C@@H](CCC(N)=O)C(=O)N[C@@H](CCC(N)=O)C(=O)N[C@@H](CC(=O)O)C(=O)N[C@@H](Cc1ccccc1)C(=O)N[C@H](C(=O)N[C@@H](CC(N)=O)C(=O)N[C@@H](Cc1c[nH]c2ccccc12)C(=O)N[C@@H](CC(C)C)C(=O)N[C@@H](CC(C)C)C(=O)N[C@@H](C)C(=O)N[C@@H](CCC(N)=O)C(=O)N[C@@H](CCCCN)C(=O)N1CCC[C@H]1C(=O)N[C@@H](CCCCN)C(=O)N[C@@H](CCCCN)C(=O)N[C@H](C(=O)N[C@@H](CCCNC(=N)N)C(=O)N[C@@H](Cc1ccc(O)cc1)C(=O)N[C@@H](CO)C(N)=O)[C@@H](C)CC)C(C)C)[C@@H](C)CC [0601 GIP48 07]	-26%, AUC240	< 794 @-120 min		
CC[C@H](C)[C@H](NC(=O)[C@H](CO)NC(=O)[C@H](Cc1ccc(O)cc1)NC(=O)[C@H](CC(=O)O)NC(=O)[C@H](CO)NC(=O)[C@@H](NC(=O)[C@H](Cc1ccccc1)NC(=O)[C@@H](NC(=O)CNC(=O)[C@H](CCC(=O)O)NC(=O)[C@@H](C)NC(=O)[C@@H](N)Cc1ccc(O)cc1)[C@@H](C)O)[C@@H](C)CC)C(=O)N[C@@H](C)C(=O)N[C@@H](CCSC)C(=O)N[C@@H](CC(=O)O)C(=O)N[C@@H](CCCCN)C(=O)N[C@H](C(=O)N[C@@H](Cc1c[nH]cn1)C(=O)N[C@@H](CCC(N)=O)C(=O)N[C@@H](CCC(N)=O)C(=O)N[C@@H](CC(=O)O)C(=O)N[C@@H](Cc1ccccc1)C(=O)N[C@H](C(=O)N[C@@H](CC(N)=O)C(=O)N[C@@H](Cc1c[nH]c2ccccc12)C(=O)N[C@@H](CC(C)C)C(=O)N[C@@H](CC(C)C)C(=O)N[C@@H](C)C(=O)N[C@@H](CCC(N)=O)C(=O)N[C@@H](CCCCN)C(=O)N1CCC[C@H]1C(=O)N[C@@H](C)C(=O)N[C@@H](CCCCN)C(=O)N[C@H](C(=O)N[C@@H](CCCNC(=N)N)C(=O)N[C@@H](Cc1ccc(O)cc1)C(=O)N[C@@H](CO)C(N)=O)[C@@H](C)CC)C(C)C)[C@@H](C)CC [0601 GIP48 15]	-14%, AUC240	< 794@ -120 min		
CC[C@H](C)[C@H](NC(=O)[C@H](C)NC(=O)[C@H](CCCCN)NC(=O)[C@@H]1CCCN1C(=O)[C@H](CCCCN)NC(=O)[C@H](CCC(N)=O)NC(=O)[C@H](C)NC(=O)[C@H](CC(C)C)NC(=O)[C@H](CC(C)C)NC(=O)[C@H](Cc1c[nH]c2ccccc12)NC(=O)[C@H](CC(N)=O)NC(=O)[C@@H](NC(=O)[C@H](Cc1ccccc1)NC(=O)[C@H](CC(=O)O)NC(=O)[C@H](CCC(N)=O)NC(=O)[C@H](CCC(N)=O)NC(=O)[C@H](Cc1c[nH]cn1)NC(=O)[C@@H](NC(=O)[C@H](CCCCN)NC(=O)[C@H](CC(=O)O)NC(=O)[C@H](CCSC)NC(=O)[C@H](C)NC(=O)[C@@H](NC(=O)[C@H](CO)NC(=O)[C@H](Cc1ccc(O)cc1)NC(=O)[C@H](CC(=O)O)NC(=O)[C@H](CO)NC(=O)[C@@H](NC(=O)[C@H](Cc1ccccc1)NC(=O)[C@@H](NC(=O)CNC(=O)[C@H](CCC(=O)O)NC(=O)[C@@H](C)NC(=O)[C@@H](N)Cc1ccc(O)cc1)[C@@H](C)O)[C@@H](C)CC)[C@@H](C)CC)[C@@H](C)CC)C(C)C)C(=O)N[C@@H](CCCNC(=N)N)C(=O)N[C@@H](Cc1ccc(O)cc1)C(=O)N[C@@H](CO)C(N)=O [0601 GIP48 16]	-9%, AUC240	<794@-120 min		
CC[C@H](C)[C@H](NC(=O)[C@H](CO)NC(=O)[C@H](Cc1ccc(O)cc1)NC(=O)[C@H](CC(=O)O)NC(=O)[C@H](CO)NC(=O)[C@@H](NC(=O)[C@H](Cc1ccccc1)NC(=O)[C@@H](NC(=O)CNC(=O)[C@H](CCC(=O)O)NC(=O)[C@@H](C)NC(=O)[C@@H](N)Cc1ccc(O)cc1)[C@@H](C)O)[C@@H](C)CC)C(=O)N[C@@H](C)C(=O)N[C@@H](CCSC)C(=O)N[C@@H](CC(=O)O)C(=O)N[C@@H](CCCCN)C(=O)N[C@H](C(=O)N[C@@H](Cc1c[nH]cn1)C(=O)N[C@@H](CCC(N)=O)C(=O)N[C@@H](CCC(N)=O)C(=O)N[C@@H](CC(=O)O)C(=O)N[C@@H](Cc1ccccc1)C(=O)N[C@H](C(=O)N[C@@H](CC(N)=O)C(=O)N[C@@H](Cc1c[nH]c2ccccc12)C(=O)N[C@@H](CC(C)C)C(=O)N[C@@H](CC(C)C)C(=O)N[C@@H](C)C(=O)N[C@@H](CCC(N)=O)C(=O)N[C@@H](CCCCN)C(=O)N1CCC[C@H]1C(=O)N[C@@H](CCCCN)C(=O)N[C@@H](CCC(N)=O)C(=O)N[C@H](C(=O)N[C@@H](CCCNC(=N)N)C(=O)N[C@@H](Cc1ccc(O)cc1)C(=O)N[C@@H](CO)C(N)=O)[C@@H](C)CC)C(C)C)[C@@H](C)CC [0601 GIP48 54]		< 794@ -120 min		
Secretin: peptide compared for inhibition of gastric emptying in conscious rats				EC(50) ([3]; conscious rats ~200g): 1.87 µg; EC(50) ([3]; conscious rats): 3.09 nmol/kg
[dAla2, Leu14, beta-Ala31, beta-Ala32] GIP-(1-32)-Exendin-4 (31-39) [Compound 0601GIP4179]	-17%, AUC240			AUC Change in Insulin Post IVGTT [4]: 206.8+-30.1; AUC Change in Insulin Pre IVGTT [4]: 52.4+-9.6
[dAla2]GIP-(1-30)-[Octylglycine 34] Exendin-4 (31-39) [Compound 0601GIP4252]	-7%, AUC240			AUC Change in Insulin Post IVGTT [4]: 1218.1+ -12.7; AUC Change in Insulin Pre IVGTT [4]: 11.9+-11.7
^25,28,29Pro-h-amylin (KCNTATCATQRLANFLVHSSNNFGPILPPTNVGSNTY; chains of the INN, looked up) [Pramlintide]				EC(50) ([3]; conscious rats ~200g): 0.07 µg
adrenomedullin: peptide compared for inhibition of gastric emptying in conscious rats (YRQSMNNFQGLRSFGCRFGTCTVQKLAHQIYQFTDKDKDNVAPRSKISPQGY; ends and bridges not checked; cysteine pairing not given here; UniProt P35318 95-146, looked up)			weakly active or inactive	
glucagon: peptide compared for inhibition of gastric emptying in conscious rats			weakly active or inactive	
neuropeptide Y: peptide compared for inhibition of gastric emptying in conscious rats			weakly active or inactive	
octylglycine-GIP(1-30)-Exendin-4-(31-39) [Compound 0601GIP4178]	-13%, AUC240			insulin levels prior to the glucose challenge [4, 5]: significant rise in insulin levels; insulinotropic response to an intravenous glucose challenge [4, 5]: diminished insulinotropic response; AUC Change in Insulin Post IVGTT [4]: 106.6+-23.8; AUC Change in Insulin Pre IVGTT [4]: 18.5+-6.7
pancreatic polypeptide: peptide compared for inhibition of gastric emptying in conscious rats (APLEPVYPGDNATPEQMAQYAADLRRYINMLTRPRY; ends and bridges not checked; UniProt P01298 30-65, looked up)			weakly active or inactive	
somatostatin: peptide compared for inhibition of gastric emptying in conscious rats (AGCKNFFWKTFTSC; ends and bridges not checked; cysteine pairing not given here; UniProt P61278 103-116, looked up)			weakly active or inactive	
vasoactive intestinal peptide: peptide compared for inhibition of gastric emptying in conscious rats (HSDAVFTDNYTRLRKQMAVKKYLNSILN; ends and bridges not checked; UniProt P01282 125-152, looked up)			weakly active or inactive	
